Results from ChEMBL document CHEMBL3877313, “3,4-Dihydropyrimidinone-coumarin analogues as a new class of selective agent against S. aureus: Synthesis, biological evaluation and molecular modelling study” (2017).
Values after ≈ are worked out from the molar mass of the structure shown.

Assays:
Staphylococcus aureus = assay: Antibacterial activity against Staphylococcus aureus ATCC 12598 after 24 hrs by broth microdilution method; format: functional; conditions: ATCC 12598, 24 h
Bacillus subtilis = assay: Antibacterial activity against Bacillus subtilis ATCC 23857 after 24 hrs by broth microdilution method; format: functional; conditions: ATCC 23857, 24 h
Pseudomonas aeruginosa = assay: Antibacterial activity against Pseudomonas aeruginosa ATCC 25619 after 24 hrs by broth microdilution method; format: functional; conditions: ATCC 25619, 24 h
[1] = target: Matrix metalloproteinase-9 (Homo sapiens) (UniProt P14780); assay: Inhibition of MMP9 in inflamed tissue isolated from chronic periodontitis patient at 500 ug/l after 15 to 30 mins by gelatin zymographic method relative to control
Matrix metalloproteinase-9 (Homo sapiens), sequence (P14780 whole entry): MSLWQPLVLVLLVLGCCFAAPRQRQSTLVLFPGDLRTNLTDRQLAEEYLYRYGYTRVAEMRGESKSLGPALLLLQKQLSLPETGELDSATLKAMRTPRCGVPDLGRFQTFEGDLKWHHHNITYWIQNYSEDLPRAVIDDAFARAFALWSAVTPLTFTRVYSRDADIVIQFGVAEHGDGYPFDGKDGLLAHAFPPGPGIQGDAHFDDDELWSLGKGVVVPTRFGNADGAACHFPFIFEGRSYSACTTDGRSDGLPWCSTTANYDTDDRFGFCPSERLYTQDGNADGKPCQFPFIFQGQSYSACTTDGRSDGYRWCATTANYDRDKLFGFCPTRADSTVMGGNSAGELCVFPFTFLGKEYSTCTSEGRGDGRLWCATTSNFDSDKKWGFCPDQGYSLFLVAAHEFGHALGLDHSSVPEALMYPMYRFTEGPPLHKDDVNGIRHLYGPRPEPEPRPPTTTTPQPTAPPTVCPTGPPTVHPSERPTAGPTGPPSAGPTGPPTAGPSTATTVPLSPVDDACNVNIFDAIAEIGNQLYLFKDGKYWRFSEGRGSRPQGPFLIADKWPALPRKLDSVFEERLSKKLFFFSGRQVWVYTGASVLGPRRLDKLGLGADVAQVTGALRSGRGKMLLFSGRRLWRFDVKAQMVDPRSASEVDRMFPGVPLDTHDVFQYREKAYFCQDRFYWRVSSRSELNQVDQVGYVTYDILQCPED

Escherichia coli = assay: Antibacterial activity against Escherichia coli ATCC 25922 after 24 hrs by broth microdilution method; format: functional; conditions: ATCC 25922, 24 h
[2] = target: 72 kDa type IV collagenase (Homo sapiens) (UniProt P08253); assay: Inhibition of MMP2 in inflamed tissue isolated from chronic periodontitis patient at 500 ug/l after 15 to 30 mins by gelatin zymographic method relative to control
72 kDa type IV collagenase (Homo sapiens), sequence (P08253 110-660 limits assumed): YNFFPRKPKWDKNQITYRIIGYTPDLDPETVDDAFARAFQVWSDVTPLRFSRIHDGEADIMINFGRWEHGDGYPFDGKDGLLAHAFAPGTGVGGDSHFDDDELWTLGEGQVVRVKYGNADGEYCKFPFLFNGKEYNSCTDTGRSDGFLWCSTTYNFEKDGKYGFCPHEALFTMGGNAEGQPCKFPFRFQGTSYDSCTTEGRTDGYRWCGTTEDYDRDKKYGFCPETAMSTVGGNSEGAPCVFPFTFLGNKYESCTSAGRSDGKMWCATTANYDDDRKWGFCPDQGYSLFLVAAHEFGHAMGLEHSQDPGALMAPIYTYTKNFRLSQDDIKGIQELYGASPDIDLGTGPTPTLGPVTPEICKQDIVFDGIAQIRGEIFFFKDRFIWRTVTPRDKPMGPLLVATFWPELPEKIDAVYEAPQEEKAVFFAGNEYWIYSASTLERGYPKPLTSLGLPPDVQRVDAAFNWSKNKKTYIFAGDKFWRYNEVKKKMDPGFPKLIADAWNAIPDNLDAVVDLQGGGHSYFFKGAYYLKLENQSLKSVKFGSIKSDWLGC

| SMILES | MIC (Staphylococcus aureus) | MIC (Bacillus subtilis) | MIC (Pseudomonas aeruginosa) | inhibition [1] | MIC (Escherichia coli) | inhibition [2] |
| --- | --- | --- | --- | --- | --- | --- |
| CCOC(=O)C1=C(C)NC(=O)NC1c1cc(=O)oc2ccc(OC)cc12 (configuration not stated) | 0.8 µg/mL (≈ 2.23 µM) | 100 µg/mL (≈ 279 µM) | 25 µg/mL (≈ 69.8 µM) | 85% | 50 µg/mL (≈ 140 µM) | 95% |
| CCOC(=O)C1=C(C)NC(=S)NC1c1cc(=O)oc2c1ccc1ccccc12 (configuration not stated) | 0.4 µg/mL (≈ 1.01 µM) | 100 µg/mL (≈ 254 µM) | 100 µg/mL (≈ 254 µM) | 95% | 0.4 µg/mL (≈ 1.01 µM) | 90% |
| O=C(O)c1cn(C2CC2)c2cc(N3CCNCC3)c(F)cc2c1=O [CIPROFLOXACIN] | 2 µg/mL (≈ 6.04 µM) | 2 µg/mL (≈ 6.04 µM) | < 4 µg/mL |  |  |  |
| CCOC(=O)C1=C(C)NC(=O)NC1c1cc(=O)oc2c1ccc1ccccc12 (configuration not stated) | 0.4 µg/mL (≈ 1.06 µM) | 100 µg/mL (≈ 264 µM) | 25 µg/mL (≈ 66.1 µM) | 90% | 25 µg/mL (≈ 66.1 µM) | 96% |
| CCOC(=O)C1=C(C)NC(=O)NC1c1cc(=O)oc2cc(C)ccc12 (configuration not stated) | 0.2 µg/mL (≈ 0.584 µM) | 50 µg/mL (≈ 146 µM) | 100 µg/mL (≈ 292 µM) | 70% | 12.5 µg/mL (≈ 36.5 µM) | 95% |
| CCOC(=O)C1=C(C)NC(=O)NC1c1cc(=O)oc2ccc(Cl)cc12 (configuration not stated) | 3.12 µg/mL (≈ 8.6 µM) | 100 µg/mL (≈ 276 µM) | 50 µg/mL (≈ 138 µM) |  | 25 µg/mL (≈ 68.9 µM) | 85% |
| CN(C)[C@@H]1C(O)=C(C(N)=O)C(=O)[C@@]2(O)C(O)=C3C(=O)c4c(O)cccc4[C@@](C)(O)[C@H]3C[C@@H]12 |  |  |  | 100% |  | 100% |

Results, then the compound that gave them:

| MIC (Staphylococcus aureus) | MIC (Bacillus subtilis) | MIC (Pseudomonas aeruginosa) | inhibition [1] | MIC (Escherichia coli) | inhibition [2] | SMILES |
| --- | --- | --- | --- | --- | --- | --- |
| 6.25 µg/mL (≈ 17.4 µM) | 50 µg/mL (≈ 140 µM) | 100 µg/mL (≈ 279 µM) | 30% | 25 µg/mL (≈ 69.8 µM) | 80% | CCOC(=O)C1=C(C)NC(=S)NC1c1cc(=O)oc2cc(C)ccc12 (configuration not stated) |
| 0.4 µg/mL (≈ 1.17 µM) | 12.5 µg/mL (≈ 36.5 µM) | 100 µg/mL (≈ 292 µM) | 80% | 50 µg/mL (≈ 146 µM) | 90% | CCOC(=O)C1=C(C)NC(=O)NC1c1cc(=O)oc2ccc(C)cc12 (configuration not stated) |
| 0.4 µg/mL (≈ 1.12 µM) | 100 µg/mL (≈ 279 µM) | 100 µg/mL (≈ 279 µM) |  | 1.6 µg/mL (≈ 4.46 µM) | 82% | CCOC(=O)C1=C(C)NC(=S)NC1c1cc(=O)oc2ccc(C)cc12 (configuration not stated) |
| 0.8 µg/mL (≈ 2.14 µM) | 50 µg/mL (≈ 134 µM) | 100 µg/mL (≈ 267 µM) | 10% | 25 µg/mL (≈ 66.8 µM) | 87% | CCOC(=O)C1=C(C)NC(=S)NC1c1cc(=O)oc2ccc(OC)cc12 (configuration not stated) |
| 0.8 µg/mL (≈ 2.11 µM) | 50 µg/mL (≈ 132 µM) | 100 µg/mL (≈ 264 µM) |  | 0.4 µg/mL (≈ 1.06 µM) | 85% | CCOC(=O)C1=C(C)NC(=S)NC1c1cc(=O)oc2ccc(Cl)cc12 (configuration not stated) |
